Measured values taken from US20250248979A1, “NOVEL GPX4 INHIBITORS AND USES THEREOF” (THE TRUSTEES OF COLUMBIA UNIVERSITY IN THE CITY OF NEW YORK, priority 2022, published 2025).
Converted amounts (≈) assume the structure as drawn. Like-named read-outs stand apart in the source and are kept apart here.

Legend:
in vitro [1] = assay type: in vitro ADME, human
Method: (§1) […]. The incubation timepoints measured were 0, 5, 10, 15, 30, and 45 minutes. All samples were prepared in duplicate and analyzed by LC-MS/MS.

in vitro [2] = assay type: in vitro ADME, mouse
Method: as §1

[3] = Kinetic aqueous solubility; conditions: aqueous solubility; Table 9
HT-1080 cells = assay: Cellular dose response assay, HT-1080 with and without Fer-1; assay type: cell-based, human
Summary of the method: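 Dose-response over 12 twofold concentrations, 48 h exposure, 0.4% DMSO, in cells seeded at 1500 per well overnight. HT-1080 also run plus Fer-1. Endpoint: CellTiter-Glo luminescence.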

HepG2 cells = assay: Cellular dose response assay, HepG2; assay type: cell-based, human
From the text: (§2) HT-1080 (human [Homo sapiens] […] fibrosarcoma), A-673 (human [Homo sapiens] […] Ewing's sarcoma), and SK-HEP-1 (human [Homo sapiens] […] hepatic adenocarcinoma), cells were obtained from ATCC. Huh7 (human [Homo sapiens] […] hepatocellular carcinoma), HLF (human [Homo sapiens] […] hepatocellular carcinoma), HepG2 (human [Homo sapiens] […] hepatocellular carcinoma), cells were obtained from the Cancer Cell Bank at Columbia University Irving Medical Center. HT-1080, A-673, Huh-7, and HLF cells were grown in Dulbecco's Modified Eagle Medium (DMEM) supplemented with 10% heat inactivated fetal bovine serum (HI-FBS), 1% non-essential amino acids, and 1% penicillin streptomycin. HepG2 and SK-HEP-1 cells were grown in Eagle's Minimum Essential Medium (EMEM) supplemented with 10% HI-FBS, and 1% penicillin-streptomycin. All cells were cultured at 37° C. and 5% CO2.
(§3) HT-1080, HepG2, Huh7, HLF, and SK-HEP-1 cells were seeded into opaque white 384-well plates at 1500 cells per well then incubated at 37° C. with 5% CO2 overnight. The next day, compounds of interest were dissolved in DMSO and 12-point 2-fold dilution series were prepared with and without Fer-1. Cells were treated in triplicate (final DMSO concentration of 0.4% in all wells, including DMSO-only control wells) and incubated for a further 48 hours at 37° C. and 5% CO2. Cell viability was evaluated using CellTiter-Glo (Promega G7573) and luminescence was recorded on a Victor 5 plate reader. Data were analyzed in GraphPad Prism 9 and error bars represent standard deviation values for three technical replicates in a representative experiment.

GPX4 = molecular target: T1, GPX4 (Homo sapiens, UniProt P36969); assay: GPX4 activity assay in cell lysates (NADPH-coupled); assay type: biochemical; design: endogenous in cells; host or cells: A-673 cell lysate; conditions: for GPX4% inhibition at 200 (μM) / GPX4 inhibition: 200 μM
T1 sequence (P36969 1-170 isoform P36969-2): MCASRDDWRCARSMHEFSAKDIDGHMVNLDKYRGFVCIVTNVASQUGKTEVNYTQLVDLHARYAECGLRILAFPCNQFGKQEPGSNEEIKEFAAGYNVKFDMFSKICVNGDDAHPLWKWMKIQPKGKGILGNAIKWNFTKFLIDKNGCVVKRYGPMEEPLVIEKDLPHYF
Summary of the method: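 Native GPX4 in lysates of A-673 cells grown with 20 nM sodium selenite; lysate preincubated with compound 45 min at 37 °C in pH 8.0 buffer with 3 mM GSH, 0.5 mM NADPH and glutathione reductase. Reaction started with phosphatidylcholine hydroperoxide; NADPH consumption followed at 340 nm over 25 min; triplicates.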

Huh7 cells = assay: Cellular dose response assay, Huh7; assay type: cell-based, human; conditions: Table 7
From the text: as §2, §3

HLF cells = assay: Cellular dose response assay, HLF; assay type: cell-based, human; conditions: Table 7
From the text: as §2, §3

SK-HEP-1 cells = assay: Cellular dose response assay, SK-HEP-1; assay type: cell-based, human; conditions: Table 7
From the text: as §2, §3

[4] = generation 1, mean ± s.d., n = 3
[5] = compounds alone, Table 7, read-out: IC50 (uM) HT1080^a
[6] = with fer-1, Table 7, read-out: IC50 (uM) HT1080^b
[7] = compounds alone, Table 7, read-out: IC50 (uM) HEPG2^a
[8] = with fer-1, Table 7, read-out: IC50 (uM) HEPG2^b
[9] = compounds alone, read-out: IC50 (uM) Huh7^a
[10] = with fer-1, read-out: IC50 (uM) Huh7^b
[11] = compounds alone, read-out: IC50 (uM) HLF^a
[12] = with fer-1, read-out: IC50 (uM) HLF^b
[13] = compounds alone, read-out: IC50 (uM) SKHEP1^a
[14] = with fer-1, read-out: IC50 (uM) SKHEP1^b

SMILES	Solubility [3]	GPX4% inhibition at 200 (μM) (GPX4; [4])	IC50 (HT-1080 cells; [5])	IC50 (HT-1080 cells; [6])	IC50 (HepG2 cells; [7])	IC50 (HepG2 cells; [8])	IC50 (Huh7 cells; [9])	IC50 (Huh7 cells; [10])	IC50 (HLF cells; [11])	IC50 (HLF cells; [12])	IC50 (SK-HEP-1 cells; [13])	IC50 (SK-HEP-1 cells; [14])	also measured
COc1ccc(N(C(=O)CCl)C(C(=O)NCCc2ccccc2)c2cccs2)cc1Cl (centres unmarked) [ML162, reference compound]	3.8 µM (≈ 1.81 µg/mL)												Microsome Stability t1/2 (min) human (in vitro [1]; human liver microsomes): 0.9 min; Microsome Stability t1/2 (min) mouse (in vitro [2]; mouse liver microsomes): 1.5 min
O=C(Nc1c[nH]c2ccccc12)n1ccnc1 [QW-065]													IC50 (HT-1080 cells; compounds alone, read-out: IC50 (μM) HT1080^a): > 400 µM; IC50 (HT-1080 cells; compounds and fer-1 1.0 μM, read-out: IC50 (μM) HT1080^b): > 400 µM; IC50 (HepG2 cells; compounds alone, read-out: IC50 (μM) HEPG2^a): > 400 µM; IC50 (HepG2 cells; compounds and fer-1 1.0 μM, read-out: IC50 (μM) HEPG2^b): > 400 µM; GPX4% inhibition at 200 (μM) (GPX4; mean ± s.d., n = 3): 32.4 ± 2.4%
CC(C)(COC(=O)CBr)NC(=O)c1cc2cc([N+](=O)[O-])ccc2[nH]1 [QW-171]	56 µM (≈ 22.3 µg/mL)	83.9 ± 16.8%											Microsome Stability t1/2 (min) human (in vitro [1]; human, microsomes): 187 min; Microsome Stability t1/2 (min) mouse (in vitro [2]; mouse, microsomes): 283 min
COc1ccc2cc(C(=O)NCC(C)(C)COC(=O)CBr)[nH]c2c1 [QW-303]		88.7 ± 2.3%	4 µM	6.1 µM	4.7 µM	12.7 µM	6.3 µM	16.8 µM	2.5 µM	5.7 µM	5.1 µM	17.1 µM	
O=C(CBr)OCCCNC(=O)c1cc2cc(Cl)ccc2[nH]1 [QW-305]		88.6 ± 3.1%	1.9 µM	5 µM	1.9 µM	7.2 µM	3.8 µM	26.1 µM	0.7 µM	4.3 µM	2.3 µM	10.9 µM	
CC(C)(COC(=O)CCl)NC(=O)c1c[nH]c2cc(Br)ccc12 [QW-316]	71 µM (≈ 27.5 µg/mL)	87.2 ± 9.2%											Microsome Stability t1/2 (min) human (in vitro [1]; human, microsomes): 24 min; Microsome Stability t1/2 (min) mouse (in vitro [2]; mouse, microsomes): 6 min
CC(C)(COC(=O)CCl)NC(=O)c1[nH]c2ccccc2c1Br [QW-348]		99.6 ± 3.2%	8.5 µM	26 µM	7.5 µM	27.3 µM	4.5 µM	32.4 µM	4.1 µM	27.8 µM	3.9 µM	32.7 µM	
Cn1nc(C(=O)NC(C)(C)COC(=O)CCl)c2cc(Br)ccc21 [QW-356]			3.1 µM	58.3 µM	6.7 µM	73.5 µM	2.5 µM	112 µM	1.1 µM	60.9 µM	0.8 µM	81 µM	GPX4 inhibitory activity, result in words (GPX4): significant improvement on GPX4 inhibition over QW-314 and RSL3; GPX4 inhibition (GPX4): complete inhibition; GPX4% inhibition at 200 (μM) (GPX4; generation 2): 105.7 ± 2.5%
CC(C)(COC(=O)CCl)NC(=O)c1nn(-c2ccccc2)c2ccccc12 [QW-357]			9.1 µM	40.1 µM	9.2 µM	55.7 µM	3.5 µM	58.7 µM	2.9 µM	36.4 µM	3.8 µM	50 µM	GPX4 inhibition (GPX4): complete inhibition; GPX4% inhibition at 200 (μM) (GPX4; generation 2): 104.8 ± 1.9%
